Changes are numbered by the printed parent chain. Read-outs that look alike come from different tables or passages of the source.
Experiments:
Assay in all cases: KinomeScan kinase panel, single concentration 10 µM
Type in all cases: binding
KinomeScan kinase panel [1] = biological target: T1, KinomeScan kinase panel (Homo sapiens, UniProt O00238); conditions: BMPR1B, 10 µM; read-out: score (%)
T1 construct: purchased DiscoveRx (KinomeScan)

KinomeScan kinase panel [2] = biological target: T2, KinomeScan kinase panel (Homo sapiens, UniProt O00506); conditions: kinase YSK1; 10 µM; read-out: score (%)
T2 construct: purchased DiscoveRx (KinomeScan)

KinomeScan kinase panel [3] = biological target: T3, KinomeScan kinase panel (Homo sapiens, UniProt P00533, G719S); conditions: EGFR(G719S), 10 µM
T3 construct: purchased DiscoveRx (KinomeScan)

KinomeScan kinase panel [4] = biological target: T4, KinomeScan kinase panel (Homo sapiens, UniProt P07947); conditions: kinase YES; 10 µM; read-out: score (%)
T4 construct: purchased DiscoveRx (KinomeScan)

KinomeScan kinase panel [5] = biological target: T5, KinomeScan kinase panel (Homo sapiens, UniProt P21802); conditions: FGFR2, 10 µM; read-out: score (%)
T5 construct: purchased DiscoveRx (KinomeScan)

KinomeScan kinase panel [6] = biological target: T6, KinomeScan kinase panel (Homo sapiens, UniProt P24723); conditions: 10 µM, read-out: score (%)
T6 construct: purchased DiscoveRx (KinomeScan)

KinomeScan kinase panel [7] = biological target: T7, KinomeScan kinase panel (Homo sapiens, UniProt P36888); conditions: FLT3, 10 µM; read-out: score (%)
T7 construct: purchased DiscoveRx (KinomeScan)
T7 sequence (P36888 27-993): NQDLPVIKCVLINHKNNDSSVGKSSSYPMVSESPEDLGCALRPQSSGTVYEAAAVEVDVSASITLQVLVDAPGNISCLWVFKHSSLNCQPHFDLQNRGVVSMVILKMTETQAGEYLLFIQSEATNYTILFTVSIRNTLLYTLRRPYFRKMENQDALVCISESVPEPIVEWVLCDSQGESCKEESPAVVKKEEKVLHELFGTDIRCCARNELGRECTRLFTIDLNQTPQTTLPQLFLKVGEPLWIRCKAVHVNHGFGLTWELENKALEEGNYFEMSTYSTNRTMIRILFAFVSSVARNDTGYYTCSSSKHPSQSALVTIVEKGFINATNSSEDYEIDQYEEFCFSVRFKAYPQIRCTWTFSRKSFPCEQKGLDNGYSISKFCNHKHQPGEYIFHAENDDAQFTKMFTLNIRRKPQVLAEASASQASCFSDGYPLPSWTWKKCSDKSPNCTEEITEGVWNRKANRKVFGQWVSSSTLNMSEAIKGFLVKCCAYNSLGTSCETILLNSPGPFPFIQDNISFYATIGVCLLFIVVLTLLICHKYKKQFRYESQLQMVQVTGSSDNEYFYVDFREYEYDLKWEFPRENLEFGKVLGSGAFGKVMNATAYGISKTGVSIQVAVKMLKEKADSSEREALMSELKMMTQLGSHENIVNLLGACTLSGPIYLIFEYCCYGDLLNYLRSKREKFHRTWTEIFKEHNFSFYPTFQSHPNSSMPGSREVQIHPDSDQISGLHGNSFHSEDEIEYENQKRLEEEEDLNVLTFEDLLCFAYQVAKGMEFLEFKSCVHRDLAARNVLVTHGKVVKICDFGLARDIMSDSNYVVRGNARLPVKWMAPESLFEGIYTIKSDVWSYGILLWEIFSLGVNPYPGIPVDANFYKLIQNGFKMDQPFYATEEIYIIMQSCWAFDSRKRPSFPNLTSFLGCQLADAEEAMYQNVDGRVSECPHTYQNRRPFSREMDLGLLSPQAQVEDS

KinomeScan kinase panel [8] = biological target: T8, KinomeScan kinase panel (Homo sapiens, UniProt P36888, N841I); conditions: FLT3(N841I), 10 µM; read-out: score (%)
T8 construct: purchased DiscoveRx (KinomeScan)
T8 sequence (P36888 27-993 N841I): T7 sequence (P36888 27-993) with N815I

KinomeScan kinase panel [9] = biological target: T9, KinomeScan kinase panel (Homo sapiens, UniProt P42338); conditions: PIK3CB, 10 µM; read-out: score (%)
T9 construct: purchased DiscoveRx (KinomeScan)

KinomeScan kinase panel [10] = biological target: T10, KinomeScan kinase panel (Homo sapiens, UniProt Q9HBH9); conditions: MKNK2, 10 µM; read-out: score (%)
T10 construct: purchased DiscoveRx (KinomeScan)

KinomeScan kinase panel [11] = biological target: T11, KinomeScan kinase panel (Homo sapiens, UniProt Q9Y6E0); conditions: MST3, 10 µM
T11 construct: purchased DiscoveRx (KinomeScan)

T1 sequence (O00238 14-502): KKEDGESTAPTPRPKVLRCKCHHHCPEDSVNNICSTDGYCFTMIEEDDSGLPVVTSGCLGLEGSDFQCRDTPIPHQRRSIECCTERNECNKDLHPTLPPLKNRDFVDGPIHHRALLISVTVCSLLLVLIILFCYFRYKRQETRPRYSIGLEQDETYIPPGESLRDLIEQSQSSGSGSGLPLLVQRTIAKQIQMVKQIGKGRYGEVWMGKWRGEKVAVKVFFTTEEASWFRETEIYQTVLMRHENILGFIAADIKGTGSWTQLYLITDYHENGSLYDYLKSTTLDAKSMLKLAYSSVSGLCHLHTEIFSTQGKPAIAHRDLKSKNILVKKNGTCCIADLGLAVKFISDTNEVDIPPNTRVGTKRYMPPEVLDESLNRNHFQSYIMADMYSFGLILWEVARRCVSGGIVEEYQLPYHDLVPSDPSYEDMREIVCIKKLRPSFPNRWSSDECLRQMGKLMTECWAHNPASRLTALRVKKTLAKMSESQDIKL
T6 sequence (P24723 whole entry): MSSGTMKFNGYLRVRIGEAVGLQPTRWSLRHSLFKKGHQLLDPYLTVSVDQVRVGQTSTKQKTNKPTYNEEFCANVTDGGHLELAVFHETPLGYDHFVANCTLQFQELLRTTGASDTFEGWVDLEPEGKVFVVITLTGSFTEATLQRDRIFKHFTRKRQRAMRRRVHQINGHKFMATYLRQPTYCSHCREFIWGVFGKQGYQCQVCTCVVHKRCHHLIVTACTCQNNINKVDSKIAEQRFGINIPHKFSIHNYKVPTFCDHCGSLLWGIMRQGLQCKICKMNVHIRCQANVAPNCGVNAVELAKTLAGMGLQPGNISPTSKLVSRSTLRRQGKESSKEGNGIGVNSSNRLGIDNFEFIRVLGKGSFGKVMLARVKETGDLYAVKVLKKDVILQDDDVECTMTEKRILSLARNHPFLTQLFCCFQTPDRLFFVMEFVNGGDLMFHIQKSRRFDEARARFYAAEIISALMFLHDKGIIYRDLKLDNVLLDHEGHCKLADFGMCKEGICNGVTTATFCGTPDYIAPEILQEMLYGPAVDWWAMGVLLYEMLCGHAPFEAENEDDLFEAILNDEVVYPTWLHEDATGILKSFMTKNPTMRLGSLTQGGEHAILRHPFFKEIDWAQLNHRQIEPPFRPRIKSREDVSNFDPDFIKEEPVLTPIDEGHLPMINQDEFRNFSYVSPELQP
T4 sequence (P07947 whole entry): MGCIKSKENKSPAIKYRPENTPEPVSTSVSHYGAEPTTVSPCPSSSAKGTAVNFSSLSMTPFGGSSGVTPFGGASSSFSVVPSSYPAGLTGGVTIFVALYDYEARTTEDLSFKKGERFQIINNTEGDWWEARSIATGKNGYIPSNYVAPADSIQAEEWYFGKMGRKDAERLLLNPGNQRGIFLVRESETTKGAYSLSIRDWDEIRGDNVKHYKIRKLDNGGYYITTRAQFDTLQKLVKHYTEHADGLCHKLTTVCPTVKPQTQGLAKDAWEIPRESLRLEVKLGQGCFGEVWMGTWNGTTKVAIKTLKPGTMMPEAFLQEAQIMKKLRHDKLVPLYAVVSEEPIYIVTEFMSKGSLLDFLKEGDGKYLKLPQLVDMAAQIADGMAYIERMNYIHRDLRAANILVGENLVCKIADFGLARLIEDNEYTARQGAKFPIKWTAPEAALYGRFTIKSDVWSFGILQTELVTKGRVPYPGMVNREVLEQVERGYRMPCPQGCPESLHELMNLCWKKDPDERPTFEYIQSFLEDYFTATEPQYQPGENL
T3 sequence (P00533 25-1210 G719S): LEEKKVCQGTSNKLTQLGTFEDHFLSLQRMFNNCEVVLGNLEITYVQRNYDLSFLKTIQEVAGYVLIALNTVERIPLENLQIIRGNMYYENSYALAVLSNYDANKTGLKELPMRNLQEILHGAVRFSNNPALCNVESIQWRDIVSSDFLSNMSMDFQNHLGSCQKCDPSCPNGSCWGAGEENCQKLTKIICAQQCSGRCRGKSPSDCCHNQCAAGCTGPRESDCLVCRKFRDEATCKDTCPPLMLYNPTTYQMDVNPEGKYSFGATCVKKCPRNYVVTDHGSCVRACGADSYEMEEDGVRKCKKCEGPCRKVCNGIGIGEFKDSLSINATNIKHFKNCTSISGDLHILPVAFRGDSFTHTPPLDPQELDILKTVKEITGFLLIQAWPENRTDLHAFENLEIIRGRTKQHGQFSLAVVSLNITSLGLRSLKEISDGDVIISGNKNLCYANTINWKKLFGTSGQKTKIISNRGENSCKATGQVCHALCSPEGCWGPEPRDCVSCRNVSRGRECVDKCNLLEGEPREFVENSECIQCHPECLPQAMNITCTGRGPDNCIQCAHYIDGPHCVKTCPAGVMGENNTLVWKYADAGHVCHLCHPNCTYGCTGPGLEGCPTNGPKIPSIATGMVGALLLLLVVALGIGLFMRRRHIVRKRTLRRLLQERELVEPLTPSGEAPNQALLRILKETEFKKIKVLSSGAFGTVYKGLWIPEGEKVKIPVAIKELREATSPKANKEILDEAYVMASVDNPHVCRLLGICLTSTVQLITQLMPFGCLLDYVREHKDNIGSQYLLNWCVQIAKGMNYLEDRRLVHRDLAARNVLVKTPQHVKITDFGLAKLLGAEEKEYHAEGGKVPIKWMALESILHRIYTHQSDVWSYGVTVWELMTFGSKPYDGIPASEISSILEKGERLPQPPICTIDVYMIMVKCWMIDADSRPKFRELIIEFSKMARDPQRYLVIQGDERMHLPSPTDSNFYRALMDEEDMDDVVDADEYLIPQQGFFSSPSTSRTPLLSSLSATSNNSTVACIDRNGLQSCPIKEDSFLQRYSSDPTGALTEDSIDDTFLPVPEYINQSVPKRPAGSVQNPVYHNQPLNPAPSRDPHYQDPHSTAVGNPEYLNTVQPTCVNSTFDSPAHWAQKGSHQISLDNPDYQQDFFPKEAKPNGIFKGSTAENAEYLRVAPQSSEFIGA
T2 sequence (O00506 whole entry): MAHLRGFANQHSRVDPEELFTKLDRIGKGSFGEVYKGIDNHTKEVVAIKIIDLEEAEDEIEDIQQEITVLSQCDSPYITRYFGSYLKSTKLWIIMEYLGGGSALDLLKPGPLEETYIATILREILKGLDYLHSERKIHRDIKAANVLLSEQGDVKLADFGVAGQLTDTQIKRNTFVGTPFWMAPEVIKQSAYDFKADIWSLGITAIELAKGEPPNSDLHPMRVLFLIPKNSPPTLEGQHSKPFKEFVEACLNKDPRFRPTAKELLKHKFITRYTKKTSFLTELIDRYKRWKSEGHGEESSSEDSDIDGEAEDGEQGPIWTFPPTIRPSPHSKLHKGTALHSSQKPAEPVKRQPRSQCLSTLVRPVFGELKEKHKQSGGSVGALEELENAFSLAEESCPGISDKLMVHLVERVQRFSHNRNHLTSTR
T10 sequence (Q9HBH9 whole entry): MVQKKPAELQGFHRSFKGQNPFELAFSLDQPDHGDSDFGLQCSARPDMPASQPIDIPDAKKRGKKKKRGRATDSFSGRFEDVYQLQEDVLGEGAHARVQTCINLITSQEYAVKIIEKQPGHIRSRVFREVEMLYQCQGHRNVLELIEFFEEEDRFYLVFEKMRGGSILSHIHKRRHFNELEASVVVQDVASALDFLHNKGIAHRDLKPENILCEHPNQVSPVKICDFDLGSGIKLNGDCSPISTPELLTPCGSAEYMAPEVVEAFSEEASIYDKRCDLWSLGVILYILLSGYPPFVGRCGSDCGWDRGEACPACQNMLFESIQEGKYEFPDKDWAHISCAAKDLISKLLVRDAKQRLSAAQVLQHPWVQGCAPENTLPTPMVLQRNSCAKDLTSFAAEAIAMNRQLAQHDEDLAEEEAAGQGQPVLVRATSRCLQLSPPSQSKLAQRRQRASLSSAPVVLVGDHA
T9 sequence (P42338 whole entry): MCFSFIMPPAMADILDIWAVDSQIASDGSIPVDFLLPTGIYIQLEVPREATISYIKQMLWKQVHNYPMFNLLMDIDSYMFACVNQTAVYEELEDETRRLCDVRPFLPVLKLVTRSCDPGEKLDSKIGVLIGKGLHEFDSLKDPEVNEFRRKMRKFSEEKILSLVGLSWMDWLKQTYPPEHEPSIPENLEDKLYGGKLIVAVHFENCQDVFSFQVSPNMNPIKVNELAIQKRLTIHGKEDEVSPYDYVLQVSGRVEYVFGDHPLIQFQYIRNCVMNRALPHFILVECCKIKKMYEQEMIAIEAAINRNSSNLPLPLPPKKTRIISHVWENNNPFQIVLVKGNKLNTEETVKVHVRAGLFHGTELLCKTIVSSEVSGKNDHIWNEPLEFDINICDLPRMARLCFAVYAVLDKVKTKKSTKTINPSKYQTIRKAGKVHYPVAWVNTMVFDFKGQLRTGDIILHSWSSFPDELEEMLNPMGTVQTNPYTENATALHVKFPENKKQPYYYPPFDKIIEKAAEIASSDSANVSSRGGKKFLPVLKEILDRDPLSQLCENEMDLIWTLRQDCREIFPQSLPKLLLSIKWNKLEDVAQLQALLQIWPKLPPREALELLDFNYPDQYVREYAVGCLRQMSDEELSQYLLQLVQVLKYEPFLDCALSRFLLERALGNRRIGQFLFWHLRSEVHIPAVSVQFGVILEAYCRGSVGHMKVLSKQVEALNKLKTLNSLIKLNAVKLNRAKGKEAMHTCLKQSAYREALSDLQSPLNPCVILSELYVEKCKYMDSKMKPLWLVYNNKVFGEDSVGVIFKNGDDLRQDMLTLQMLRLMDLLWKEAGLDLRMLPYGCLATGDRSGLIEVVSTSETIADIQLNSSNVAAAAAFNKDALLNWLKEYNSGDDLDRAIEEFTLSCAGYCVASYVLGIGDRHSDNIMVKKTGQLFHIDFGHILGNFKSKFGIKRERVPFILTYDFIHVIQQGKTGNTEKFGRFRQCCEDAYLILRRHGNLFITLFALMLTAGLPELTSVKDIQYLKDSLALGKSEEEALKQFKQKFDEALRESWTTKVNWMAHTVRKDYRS

| Structure (SMILES) | remaining binding at 10 µM (KinomeScan kinase panel [1]) [%] | remaining binding at 10 µM (KinomeScan kinase panel [2]) [%] | score (%) (KinomeScan kinase panel [3]) | remaining binding at 10 µM (KinomeScan kinase panel [4]) [%] | remaining binding at 10 µM (KinomeScan kinase panel [5]) [%] | remaining binding at 10 µM (KinomeScan kinase panel [6]; PRKCH) [%] | remaining binding at 10 µM (KinomeScan kinase panel [7]) [%] | remaining binding at 10 µM (KinomeScan kinase panel [8]) [%] | remaining binding at 10 µM (KinomeScan kinase panel [9]) [%] | remaining binding at 10 µM (KinomeScan kinase panel [10]) [%] | score (%) (KinomeScan kinase panel [11]) | remaining binding at 10 µM (KinomeScan kinase panel [6]; kinase PRKCH) [%] |
| --- | --- | --- | --- | --- | --- | --- | --- | --- | --- | --- | --- | --- |
| CCN1CCN(Cc2ccc(NC(=O)c3ccc(C)c(NC(=O)c4cncc(-c5cccs5)c4)c3)cc2C(F)(F)F)CC1 [ALW-II-41-27] | > 30 | > 30 | 0.5 | 0.1 | 4.3 | 4.6 | 0.65 | 0.75 | > 30 | > 30 | nb (Hits values higher than 30% were considered negative (no binding: nb)) |  |
| CCN1CCN(Cc2ccc(NC(=O)c3ccc(C)c(C#Cc4cccnc4)c3)cc2C(F)(F)F)CC1 [XMD15-44] | > 30 | 16 | 2.4 | 0.1 | 0.5 |  | 0.25 | 0 | 100 | 0 | 2.8% | 67 |
| CCN1CCN(Cc2ccc(NC(=O)c3ccc(C)c(/C=C/c4cnc5[nH]ccc5c4Cl)c3)cc2C(F)(F)F)CC1 [HG-6-63-01, (E)-3-(2-(4-chloro-1H-pyrrolo[2,3-b]pyridin-5-yl)vinyl)-N-(4-((4-ethylpiperazin-1-yl)methyl)-3-(trifluoromethyl)phenyl)-4-methylbenzamide] | > 30 | > 30 | 0.1 | 0.85 | 1.6 | > 30 | 0.1 | 0.15 | > 30 | 0.75 | nb (Hits values higher than 30% were considered negative (no binding: nb)) |  |

— PMC4457528, “Identification of Novel Small Molecule Inhibitors of Oncogenic RET Kinase” (PLoS ONE, 2015)
